Experimental data reported in patent US20260217673A1, “NOVEL COMPOUND AS RON INHIBITOR” (LG CHEM, LTD., priority 2022, published 2026).

Tests used:
[1] = target: RON (Homo sapiens, UniProt Q04912); assay: RON inhibitory activity, TR-FRET kinase assay; assay type: biochemical; conditions: RON protein, ULight-labeled Poly GT substrate
Procedure: To measure the RON inhibitory activity of the example compounds, the IC50 of the compounds was measured using time-resolved fluorescence energy transfer (TR-FRET).
Specifically, the compound was prepared at a concentration of 1 mM with 100% DMSO and serially diluted 10 times through 3-fold dilution. 2 μl of the serially diluted compound was added to a 96-well plate containing 48 μl of 1× kinase reaction buffer (50 mM HEPES (pH 7.4), 0.01% Tween-20, 5 mM DTT, 0.5 mM Na3VO4, 2 mM EGTA, 10 mM MgCl2).
The RON protein was diluted with a RON storage buffer (50 mM Tris-HCl (pH 7.5), 150 mM NaCl, 0.5 mM EDTA, 0.02% Triton X-100) to a concentration of 49.3 nM, and then diluted again with 1× kinase reaction buffer to be 0.4 nM. As a substrate cocktail, a RON-specific substrate mixture (40 μM ULight-labeled Poly GT, 100 nM ATP) was prepared at a concentration twice the final reaction concentration.
(§1) After that, a 384-well plate was prepared, and 2.5 μl of the diluted example compound was added to each of the experimental group wells, and 2.5 μl of a 4% DMSO solution was dispensed into high control wells and low control wells.
(§2) Afterward, 2.5 μl of 0.4 nM RON was dispensed into the high control wells and the experimental group wells, and 2.5 μl of 1× kinase reaction buffer was added to the low control wells, and after centrifugation at 1000 RPM for 40 seconds at room temperature, the mixtures were incubated at room temperature for 20 to 30 minutes. Then, 5 μl of the substrate cocktail (2×) was dispensed into all wells, and after centrifugation at 1000 RPM for 40 seconds at room temperature, the mixtures were incubated at room temperature for 60 minutes. Afterward, 5 μl of 30 mM EDTA was added to all wells to terminate the reaction, and the mixtures were incubated again at room temperature for 5 minutes. Thereafter, 5 μl of 4× phosphotyrosine antibodies (Perkin Elmer) containing europium was added to all wells and incubated at room temperature for 60 minutes. After the incubation, the 384-well-plate was read with a Vison plate reader. At this time, the excitation wavelength was 340 nm, and the emission wavelengths were 620 nm and 665 nm. The IC50 value of each example compound was derived using the GraphPd Prism7 program.

[2] = target: cMET (Homo sapiens, UniProt P08581); assay: MET (cMET) enzyme inhibitory activity, TR-FRET kinase assay; assay type: biochemical; conditions: cMET protein, TK peptide substrate
cMET, sequence (P08581 25-1390): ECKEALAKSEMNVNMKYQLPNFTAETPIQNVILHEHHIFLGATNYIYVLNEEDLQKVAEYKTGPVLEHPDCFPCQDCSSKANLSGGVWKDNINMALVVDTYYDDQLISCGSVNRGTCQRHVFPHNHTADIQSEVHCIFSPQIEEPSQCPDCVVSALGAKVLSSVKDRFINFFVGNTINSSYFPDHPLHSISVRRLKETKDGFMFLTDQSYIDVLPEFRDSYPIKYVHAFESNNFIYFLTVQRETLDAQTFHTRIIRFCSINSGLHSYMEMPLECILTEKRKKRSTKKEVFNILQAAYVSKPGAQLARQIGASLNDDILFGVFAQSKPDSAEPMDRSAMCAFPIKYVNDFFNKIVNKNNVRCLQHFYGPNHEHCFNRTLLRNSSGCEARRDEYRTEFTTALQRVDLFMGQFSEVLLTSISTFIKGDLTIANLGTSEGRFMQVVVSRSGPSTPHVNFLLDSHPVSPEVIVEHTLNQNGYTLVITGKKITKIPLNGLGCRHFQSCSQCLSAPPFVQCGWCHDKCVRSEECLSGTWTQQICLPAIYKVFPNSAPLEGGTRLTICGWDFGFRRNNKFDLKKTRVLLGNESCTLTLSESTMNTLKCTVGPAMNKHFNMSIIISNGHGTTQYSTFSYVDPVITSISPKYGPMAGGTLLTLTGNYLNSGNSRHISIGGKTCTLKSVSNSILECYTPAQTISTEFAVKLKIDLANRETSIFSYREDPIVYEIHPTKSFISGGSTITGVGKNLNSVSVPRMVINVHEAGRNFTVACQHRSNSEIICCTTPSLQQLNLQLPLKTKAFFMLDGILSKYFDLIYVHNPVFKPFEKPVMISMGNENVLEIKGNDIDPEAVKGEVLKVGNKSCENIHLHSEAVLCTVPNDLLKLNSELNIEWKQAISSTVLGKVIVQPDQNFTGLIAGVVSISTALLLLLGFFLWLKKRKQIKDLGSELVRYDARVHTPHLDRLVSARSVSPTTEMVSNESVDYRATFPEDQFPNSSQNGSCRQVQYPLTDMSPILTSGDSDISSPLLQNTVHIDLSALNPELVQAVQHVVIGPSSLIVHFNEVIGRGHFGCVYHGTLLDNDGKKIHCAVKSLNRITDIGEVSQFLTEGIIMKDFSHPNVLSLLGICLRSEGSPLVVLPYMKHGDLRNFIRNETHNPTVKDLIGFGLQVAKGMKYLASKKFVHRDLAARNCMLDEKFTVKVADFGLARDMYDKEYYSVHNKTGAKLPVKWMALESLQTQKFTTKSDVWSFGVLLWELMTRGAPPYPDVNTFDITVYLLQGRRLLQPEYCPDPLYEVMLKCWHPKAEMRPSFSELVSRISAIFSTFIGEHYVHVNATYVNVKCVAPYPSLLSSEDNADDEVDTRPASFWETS
Procedure: In addition, to measure cMET enzyme activity inhibition, an experiment was performed by the same method as the experiment for measuring the RON enzyme activity inhibition.
Specifically, the compound was prepared at a concentration of 1 mM with 100% DMSO and serially diluted 10 times through 3-fold dilution. 2 μl of the serially diluted compound was added to a 96-well plate containing 48 μl 1× kinase reaction buffer (50 mM HEPES (pH 7.4), 0.05% BSA, 0.005% Tween-20, 1 mM DTT, 0.5 mM MnCl2, 20 mM MgCl2).
The cMET protein was diluted in a cMET storage buffer (50 mM Tris-HCl (pH 7.5), 150 mM NaCl, 0.05% Brij35, 1 mM DTT, 10% glycerol) to a concentration of 263 nM, and then diluted again with 1× kinase reaction buffer to 2 nM. As a substrate cocktail, a MET-specific substrate mixture (5 μM TK peptide, 10 mM ATP) was prepared at a concentration twice the final reaction concentration.
as §1
as §2, with “μl of 2 nM cMET” for “μl of 0.4 nM RON”, “2 nM cMET was dispensed” for “0.4 nM RON was dispensed”, “was dispensed to the high” for “was dispensed into the high”, “μl of 90 mM EDTA” for “μl of 30 mM EDTA”

RON, sequence (Q04912 25-1400, species assumed): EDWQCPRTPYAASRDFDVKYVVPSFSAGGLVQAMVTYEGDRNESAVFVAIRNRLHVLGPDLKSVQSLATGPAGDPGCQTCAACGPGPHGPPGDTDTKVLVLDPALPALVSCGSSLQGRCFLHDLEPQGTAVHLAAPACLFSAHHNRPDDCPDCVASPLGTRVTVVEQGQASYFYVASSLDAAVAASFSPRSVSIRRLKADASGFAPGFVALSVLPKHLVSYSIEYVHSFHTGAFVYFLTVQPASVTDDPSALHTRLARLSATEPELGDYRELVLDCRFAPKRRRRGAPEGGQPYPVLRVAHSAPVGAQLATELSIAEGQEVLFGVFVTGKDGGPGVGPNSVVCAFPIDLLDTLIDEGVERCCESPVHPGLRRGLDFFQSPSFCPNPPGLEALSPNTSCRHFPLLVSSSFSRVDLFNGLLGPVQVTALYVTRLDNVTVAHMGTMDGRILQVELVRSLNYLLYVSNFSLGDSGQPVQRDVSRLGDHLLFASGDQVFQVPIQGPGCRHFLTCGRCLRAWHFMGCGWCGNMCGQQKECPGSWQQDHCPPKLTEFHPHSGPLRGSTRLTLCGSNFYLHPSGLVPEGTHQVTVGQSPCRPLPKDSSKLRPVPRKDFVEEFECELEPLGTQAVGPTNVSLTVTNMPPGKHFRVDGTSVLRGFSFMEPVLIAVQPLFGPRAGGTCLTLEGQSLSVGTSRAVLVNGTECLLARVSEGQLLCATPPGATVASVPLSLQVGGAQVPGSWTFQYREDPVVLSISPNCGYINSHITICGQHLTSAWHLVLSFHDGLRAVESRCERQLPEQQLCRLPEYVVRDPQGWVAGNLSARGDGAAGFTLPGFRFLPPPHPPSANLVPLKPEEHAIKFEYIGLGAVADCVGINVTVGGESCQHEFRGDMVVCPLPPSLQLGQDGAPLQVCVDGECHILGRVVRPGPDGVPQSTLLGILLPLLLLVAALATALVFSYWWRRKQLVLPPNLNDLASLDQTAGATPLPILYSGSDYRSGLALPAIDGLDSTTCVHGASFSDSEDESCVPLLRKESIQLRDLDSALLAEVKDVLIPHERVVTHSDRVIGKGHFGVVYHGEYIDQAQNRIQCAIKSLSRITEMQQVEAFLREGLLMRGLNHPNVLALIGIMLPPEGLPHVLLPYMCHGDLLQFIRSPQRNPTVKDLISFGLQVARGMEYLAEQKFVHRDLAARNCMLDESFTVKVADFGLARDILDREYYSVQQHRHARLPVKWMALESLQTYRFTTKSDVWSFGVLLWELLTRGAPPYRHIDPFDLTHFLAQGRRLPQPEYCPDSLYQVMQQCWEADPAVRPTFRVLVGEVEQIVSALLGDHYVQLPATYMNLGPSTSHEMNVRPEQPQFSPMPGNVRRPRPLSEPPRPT

IC50 [1] | IC50 [2] | SMILES
< 50 nM | 500 to 5000 nM | CC(C)c1c(Oc2c(F)cc(NC(=O)c3cnn(-c4ncccc4F)c3C(F)(F)F)cc2F)ccnc1N [Example 46, N-(4-((2-amino-3-isopropylpyridin-4-yl)oxy)-3,5-difluorophenyl)-1-(3-fluoropyridin-2-yl)-5-(trifluoromethyl)-1H-pyrazole-4-carboxamide]
< 50 nM | 500 to 5000 nM | Nc1nccc(Oc2c(F)cc(NC(=O)c3cnn(-c4ncccc4F)c3C(F)(F)F)cc2F)c1CN1CCOCC1 [Example 47, N-(4-((2-amino-3-(morpholinomethyl)pyridin-4-yl)oxy)-3,5-difluorophenyl)-1-(3-fluoropyridine-2-yl)-5-(trifluoromethyl)-1H-pyrazole-4-carboxamide]
< 50 nM | 500 to 5000 nM | Nc1nccc(Oc2c(F)cc(NC(=O)c3cnn(-c4ccccc4)c3C(F)(F)F)cc2F)c1I [Example 13, N-(4-((2-amino-3-iodopyridin-4-yl)oxy)-3,5-difluorophenyl)-1-phenyl-5-(trifluoromethyl)-1H-pyrazole-4-carboxamide]
< 50 nM | 500 to 5000 nM | N#Cc1c(Oc2c(F)cc(NC(=O)c3cnn(-c4ccccc4)c3C(F)(F)F)cc2F)ccnc1N [Example 31, N-(4-((2-amino-3-cyanopyridin-4-yl)oxy)-3,5-difluorophenyl)-1-phenyl-5-(trifluoromethyl)-1H-pyrazole-4-carboxamide]
< 50 nM | 500 to 5000 nM | CC(C)c1c(Oc2c(F)cc(NC(=O)c3cnn(-c4ncccc4Cl)c3C(F)(F)F)cc2F)ccnc1N [Example 44, N-(4-((2-amino-3-isopropylpyridin-4-yl)oxy)-3,5-difluorophenyl)-1-(3-chloropyridin-2-yl)-5-(trifluoromethyl)-1H-pyrazole-4-carboxamide]
< 50 nM | > 5000 nM | Nc1nccc(Oc2c(F)cc(NC(=O)c3cnn(-c4ccccn4)c3C(F)(F)F)cc2F)c1I [Example 14, N-(4-((2-amino-3-iodopyridin-4-yl)oxy)-3,5-difluorophenyl)-1-(pyridin-2-yl)-5-(trifluoromethyl)-1H-pyrazole-4-carboxamide]
< 50 nM | 500 to 5000 nM | Nc1nccc(Oc2c(F)cc(NC(=O)c3cnn(-c4ncccc4Cl)c3C(F)(F)F)cc2F)c1C1CC1 [Example 39, N-(4-((2-amino-3-cyclopropylpyridin-4-yl)oxy)-3,5-difluorophenyl)-1-(3-chloropyridin-2-yl)-5-(trifluoromethyl)-1H-pyrazole-4-carboxamide]
< 50 nM | 500 to 5000 nM | C#Cc1c(Oc2c(F)cc(NC(=O)c3cnn(-c4ncccc4F)c3C(F)(F)F)cc2F)ccnc1N [Example 26, N-(4-((2-amino-3-ethynylpyridin-4-yl)oxy)-3,5-difluorophenyl)-1-(3-fluoropyridin-2-yl)-5-(trifluoromethyl)-1H-pyrazole-4-carboxamide]
< 50 nM | 50 to 500 nM | Nc1nccc(Oc2c(F)cc(NC(=O)c3cnn(-c4cccnn4)c3C(F)(F)F)cc2F)c1C#CCO [Example 56, N-(4-((2-amino-3-(3-hydroxyprop-1-yn-1-yl)pyridin-4-yl)oxy)-3,5-difluorophenyl)-1-(pyridazin-3-yl)-5-(trifluoromethyl)-1H-pyrazole-4-carboxamide]
< 50 nM | 500 to 5000 nM | Nc1nccc(Oc2c(F)cc(NC(=O)c3cnn(-c4ncccn4)c3C(F)(F)F)cc2F)c1Cl [Example 2, N-(4-((2-amino-3-chloropyridin-4-yl)oxy)-3,5-difluorophenyl)-1-(pyrimidin-2-yl)-5-(trifluoromethyl)-1H-pyrazole-4-carboxamide]
< 50 nM | 500 to 5000 nM | Nc1nccc(Oc2c(F)cc(NC(=O)c3cnn(-c4ccccc4)c3C(F)(F)F)cc2F)c1C1CC1 [Example 37, N-(4-((2-amino-3-cyclopropylpyridin-4-yl)oxy)-3,5-difluorophenyl)-1-phenyl-5-(trifluoromethyl)-1H-pyrazole-4-carboxamide]
< 50 nM | 500 to 5000 nM | Nc1nccc(Oc2c(F)cc(NC(=O)c3cnn(-c4ccccn4)c3C(F)(F)F)cc2F)c1C1CC1 [Example 40, N-(4-((2-amino-3-cyclopropylpyridin-4-yl)oxy)-3,5-difluorophenyl)-1-(pyridin-2-yl)-5-(trifluoromethyl)-1H-pyrazole-4-carboxamide]
< 50 nM | 50 to 500 nM | CC(C)(O)C#Cc1c(Oc2c(F)cc(NC(=O)c3cnn(-c4ncccc4F)c3C(F)(F)F)cc2F)ccnc1N [Example 58, N-(4-((2-amino-3-(3-hydroxy-3-methylbut-1-yn-1-yl)pyridin-4-yl)oxy)-3,5-difluorophenyl)-1-(3-fluoropyridin-2-yl)-5-(trifluoromethyl)-1H-pyrazole-4-carboxamide]
50 to 500 nM | 500 to 5000 nM | COCCCn1ncc(C(=O)Nc2cc(F)c(Oc3ccnc(N)c3Cl)c(F)c2)c1C(F)(F)F [Example 61, N-[4-[(2-amino-3-chloro-4-pyridyl)oxy]-3,5-difluoro-phenyl]-1-(3-methoxypropyl)-5-(trifluoromethyl)pyrazole-4-carboxamide]
< 50 nM | 50 to 500 nM | Nc1nccc(Oc2c(F)cc(NC(=O)c3cnn(-c4ccccn4)c3C(F)(F)F)cc2F)c1C#CCO [Example 52, N-(4-((2-amino-3-(3-hydroxyprop-1-yn-1-yl)pyridin-4-yl)oxy)-3,5-difluorophenyl)-1-(pyridin-2-yl)-5-(trifluoromethyl)-1H-pyrazole-4-carboxamide]
< 50 nM | 500 to 5000 nM | C#Cc1c(Oc2c(F)cc(NC(=O)c3cnn(-c4cccnn4)c3C(F)(F)F)cc2F)ccnc1N [Example 30, N-(4-((2-amino-3-ethynylpyridin-4-yl)oxy)-3,5-difluorophenyl)-1-(pyridazin-3-yl)-5-(trifluoromethyl)-1H-pyrazole-4-carboxamide]
50 to 500 nM | > 5000 nM | Nc1nccc(Oc2cc(F)c(NC(=O)c3cnn(-c4ncccc4F)c3C(F)(F)F)c(F)c2)c1Cl [Example 7, N-(4-((2-amino-3-chloropyridin-4-yl)oxy)-2,6-difluorophenyl)-1-(3-fluoropyridin-2-yl)-5-(trifluoromethyl)-1H-pyrazole-4-carboxamide]
< 50 nM | 500 to 5000 nM | N#Cc1c(Oc2c(F)cc(NC(=O)c3cnn(-c4ccccn4)c3C(F)(F)F)cc2F)ccnc1N [Example 32, N-(4-((2-amino-3-cyanopyridin-4-yl)oxy)-3,5-difluorophenyl)-1-(pyridin-2-yl)-5-(trifluoromethyl)-1H-pyrazole-4-carboxamide]
< 50 nM | 500 to 5000 nM | Nc1nccc(Oc2c(F)cc(NC(=O)c3cnn(-c4ncccc4Cl)c3C(F)(F)F)cc2F)c1CN1CCOCC1 [Example 49, N-(4-((2-amino-3-(morpholinomethyl)pyridin-4-yl)oxy)-3,5-difluorophenyl)-1-(3-chloropyridin-2-yl)-5-(trifluoromethyl)-1H-pyrazole-4-carboxamide]
< 50 nM | 500 to 5000 nM | Nc1nccc(Oc2c(F)cc(NC(=O)c3cnn(-c4cccnn4)c3C(F)(F)F)cc2F)c1C1CC1 [Example 42, N-(4-((2-amino-3-cyclopropylpyridin-4-yl)oxy)-3,5-difluorophenyl)-1-(pyridazin-3-yl)-5-(trifluoromethyl)-1H-pyrazole-4-carboxamide]
